“Also recorded” adds a separate entry of the source.
Experiments:
PD-L1 [1] = assay: qPCR of PD-L1 in lung cancer cells; assay type: cell-based, human; conditions: lung cancer cells
From the text: Mouse lung tissues and BAL cells were subjected to RNA extraction, RNA reverse transcription and real-time PCR as described (Li et al., Oncoimmunology 7, e1435250 (2018); Sun et al., Bio. Protoc. 7, pii: e2287 (2017)).

PDLIM2 [2] = assay: IHC staining of PDLIM2 in mouse lung tumors and tissues (urethane model); assay type: in vivo
Procedure: (§1) Urethane model: 6-8-week-old mice under FVB/N background were intraperitoneally (i.p.) injected with urethane (1 g/kg body weight, Sigma-Aldrich, St. Louis, MO, USA) once a week for six weeks. All mice were sacrificed for lung tumor examinations seven (for no drug treatment experiments) or six (for drug treatment experiments) weeks post urethane treatment. For drug treatment experiments, the epigenetic agents 5-aza-dC (1 mg/kg body weight, Sigma-Aldrich, St. Louis, MO, USA) and MS-275 (1 mg/kg body weight, Selleckchem, Houston, TX, USA), chemotherapeutic drugs carboplatin (30 mg/kg body weight, AdipoGen, San Diego, CA, USA) and paclitaxel (15 mg/kg body weight, AdipoGen, San Diego, CA, USA), and/or PD-1 neutralizing antibody (200 μg/mouse, BioXCell, West Lebanon, NH, USA) were i.p injected as indicated in FIG. 4. Surface tumors in mouse lungs were counted by three blinded readers under a dissecting microscope, and tumor diameters were measured by microcalipers. K-Ras^G12D model: 6-8-week-old mice under FVB/N background were intranasally administered 1×10^7 plaque-forming units of Cre-expressing adenovirus (adenocre; Gene Transfer Vector Core, University of Iowa, Iowa City, IA). Three months post AdenoCre treatment, all mice were sacrificed for lung tumor examinations.
Mouse or tissues were excised, fixed in formalin, embedded in paraffin, and cut into 4-pm-thick sections. […]

human lung cancer cells = assay: Cell growth assays; assay type: cell-based; conditions: human lung cancer cells with PDLIM2 knockdown (shRNA), in vitro
Procedure: Cells were seeded into 12-well plates at a density of 5,000 cells per well, in the presence or absence of the indicated treatment. Cell density was determined by replacing the medium with 2 μmol/L of calcein AM in 1× dissociation solution (Trevigen) at the indicated time points. After 1 h of incubation, diesterase activity (relative fluorescence units) was measured with a Tecan Infinite 200 Microplate Reader, using an excitation wavelength of 485 nm and emission wavelength of 520 nm.

PDLIM2 [3] = assay: qPCR analysis of PDLIM2 expression in human lung cancer cell lines; assay type: cell-based
PDLIM2 [4] = assay: qPCR analysis of PDLIM2 in mouse MAD109 lung cancer cells; assay type: cell-based
[5] = test system: lung cancer induced by urethane; assay: Urethane model of lung cancer, tumor examination; assay type: in vivo, mouse; conditions: ΔSPC mice (lung epithelial PDLIM2 deletion), 5-aza-dC and MS275 combination therapy (Epi)
Procedure: as §1
PDLIM2flx/flx/SP-C-rtTAtg/−/(tetO)7CMV-Cretg/tg (ΔSPC) mice under a pure FVB/N background and PDLIM2−/− mice under a pure BABL/C background have been described before (Sun et al., Nat. Commun. 2019. 10, 5324). For lung carcinogenesis, six to eight week old ΔSPC and wild type FVB/N mice were intraperitoneally (i.p.) injected with urethane (1 mg/g body weight, Sigma-Aldrich, St. Louis, MO, USA) once a week for six consecutive weeks, followed by different treatment as shown in FIGS. 45A and 49A. Mice were sacrificed for lung inflammation and tumor examinations at six weeks post urethane treatment. Surface tumors in mouse lungs were counted blinded under a dissecting microscope, and tumor diameters were measured by microcalipers. […]

[6] = Toxicity: animal body weight and H&E staining of major organs; assay type: in vivo, mouse; conditions: mice with lung cancer; 1 mg/kg of 5-aza-dC and MS-275 twice per week for 6 weeks
PD-L1 [7] = assay: IHC staining of PD-L1 in lung cancer (urethane model); assay type: in vivo, mouse; conditions: 5-aza-dC and MS-275 together
Procedure: as §1
Mouse or tissues were excised, fixed in formalin, embedded in paraffin, and cut into […] sections. Sections were stained with H&E, or subjected to sequential incubations with different primary antibodies and peroxidase-conjugated goat anti-rabbit secondary antibodies. The human lung tumor tissue arrays were described previously (Sun et al., Oncogene 35, 2299-2310 (2016)).
Lung tissues were excised, fixed in formalin, embedded in paraffin, and cut into 4-μm-thick sections. Sections were stained with H&E, or subjected to sequential incubations with the indicated primary antibodies, biotinylated secondary antibodies and streptavidin-HRP.

Compound: Nc1ccccc1NC(=O)c1ccc(CNC(=O)OCc2cccnc2)cc1 [MS-275, entinostat]
- PD-L1 expression (qPCR) (PD-L1 [1]): PD-L1 induction
- PDLIM2 expression in murine lung cancers (PDLIM2 [2]; both in vitro and in vivo): could be restored
- PDLIM2 expression in mouse lung tumor (IHC staining) (PDLIM2 [2]; urethane model, 5-aza-dC and MS-275 (epigenetic drugs) given together): PDLIM2 recovery
- cell growth (human lung cancer cells): protected human lung cancer cells; also recorded: protection of human lung cancer cells
- PDLIM2 expression (qPCR) (PDLIM2 [3]; H460 human lung cancer cells): PDLIM2 recovery; also recorded: time-dependent induction of PDLIM2
- PDLIM2 expression (qPCR) (PDLIM2 [3]; human lung cancer cell lines): induction of PDLIM2
- PDLIM2 expression (qPCR) (PDLIM2 [3]; human lung cancer cell lines, listed as MS275): induced PDLIM2 re-expression
- PDLIM2 expression (qPCR) (PDLIM2 [3]; normal human lung epithelial cell line NL-20 with oncogenic K-Ras Q61H mutant): PDLIM2 re-induction
- PDLIM2 expression (qPCR) (PDLIM2 [4]): PDLIM2 re-induction
- lung cancer treatment (tumor examination) [5]: completely lost the ability to treat lung cancer; also recorded: complete resistance
- animal body weight [6]: body weight loss
- PD-L1 expression in lung cancer (IHC staining) (PD-L1 [7]): PD-L1 induction

— patent US12637498B2, “PDLIM2 as a biomarker for cancer and as an anti-cancer treatment target” (UNIVERSITY OF PITTSBURGH—OF THE COMMONWEALTH SYSTEM OF …, priority 2019, dated 2026)
